This passage reports TGI results from PubChem BioAssay (NCI).

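Exposure lasted 48 hours, with cells grown in 96-well plates and compounds tested at five concentrations. TGI is the concentration that stops growth completely.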

Among the test systems are HOP-62 NSCLC; OVCAR-4 ovarian; COLO 205 colon; U251 CNS; HCT-116 colon; TK-10 renal; A498 renal; NCI-H460 lung; UACC-62 melanoma; HS 578T breast; NCI-H522 lung; SK-MEL-2 melanoma; SF-268 CNS.
Assay in all cases: inhibition of tumour cell growth, NCI panel, 48 h

Take `CC(Cc1ccc(O)c(O)c1)C(C)Cc1ccc(O)c(O)c1` (stereo not drawn): the TGI with HOP-62 NSCLC is 34.1 µM; in the assay on OVCAR-4 ovarian it was 29.5 µM; in the assay with COLO 205 colon, 35.9 µM; with U251 CNS it was 38.9 µM; in the assay on HCT-116 colon, 34.2 µM; with TK-10 renal it was greater than 87.7 µM. For the same compound, the TGI in the assay with A498 renal was 90.1 µM; in the assay with NCI-H460 lung, 35 µM; in the assay on UACC-62 melanoma, 32.8 µM; with HS 578T breast it was 52.5 µM; in the assay with NCI-H522 lung, 4.91 µM; in the assay with SK-MEL-2 melanoma, 42.9 µM. Further, the TGI with SF-268 CNS came out at 41.6 µM.
For the compound `Cc1cc(=Nc2ccc3c(c2)c(N)cc(C)[n+]3C)nc(N)n1C`, the TGI with HOP-62 NSCLC, in the assay on OVCAR-4 ovarian, with COLO 205 colon, with U251 CNS, with HCT-116 colon and in the assay on TK-10 renal was greater than 100 µM throughout. Further, the TGI with A498 renal, with NCI-H460 lung, in the assay on UACC-62 melanoma, in the assay with HS 578T breast, with NCI-H522 lung and with SK-MEL-2 melanoma was greater than 100 µM in each case. Also, the TGI in the assay on SF-268 CNS is greater than 100 µM.
`Fc1ccc(C(OCCN2CCC3CCC(C2)N3Cc2cc3ccccc3[nH]2)c2ccc(F)cc2)cc1` (stereo not drawn): the TGI in the assay on HOP-62 NSCLC turned out to be 4.54 µM; with OVCAR-4 ovarian, 5.68 µM; in the assay with COLO 205 colon, 2.14 µM; with U251 CNS, 3.42 µM; in the assay on HCT-116 colon it was 2.6 µM; in the assay on TK-10 renal, 5.38 µM. For the same compound, the TGI in the assay on A498 renal is 2.99 µM; in the assay on NCI-H460 lung it was 3.67 µM; in the assay on UACC-62 melanoma it was 4.46 µM; in the assay with HS 578T breast it was 4 µM; in the assay with NCI-H522 lung, 2.84 µM; with SK-MEL-2 melanoma, 3.16 µM. In the assay on SF-268 CNS, this compound came in with a TGI of 4.12 µM.
Take `CCOC(=O)c1nc2cc(C(F)(F)F)ccc2nc1Nc1ccc(Cl)c(Cl)c1`: the TGI with HOP-62 NSCLC, in the assay with OVCAR-4 ovarian, in the assay with COLO 205 colon, with U251 CNS, in the assay with HCT-116 colon and in the assay with TK-10 renal was greater than 100 µM in each case. The TGI in the assay on A498 renal, in the assay with NCI-H460 lung, in the assay on UACC-62 melanoma, in the assay on HS 578T breast, in the assay with NCI-H522 lung and in the assay on SK-MEL-2 melanoma was greater than 100 µM in each case. The TGI in the assay with SF-268 CNS was greater than 100 µM.
`Nc1cccc(OCc2nc(N)nc(N)c2-c2ccc(Cl)cc2)c1`: the TGI was greater than 100 µM with HOP-62 NSCLC; greater than 100 µM with OVCAR-4 ovarian; 44.1 µM in the assay with COLO 205 colon; greater than 100 µM in the assay on U251 CNS; greater than 100 µM with HCT-116 colon; greater than 100 µM with TK-10 renal. The TGI in the assay on A498 renal, in the assay on NCI-H460 lung, in the assay with UACC-62 melanoma, with HS 578T breast, in the assay with NCI-H522 lung and in the assay on SK-MEL-2 melanoma was greater than 100 µM each time. In the assay on SF-268 CNS, this compound registered a TGI greater than 100 µM.
Take `C=CCn1c(=O)c(C)cn(/C(=C/C(=O)OCC)C(=O)OCC)c1=O`: the TGI was greater than 100 µM in the assay with HOP-62 NSCLC; 46.4 µM in the assay with OVCAR-4 ovarian; 15.2 µM with COLO 205 colon; 28.4 µM in the assay on U251 CNS; 21.5 µM in the assay with HCT-116 colon; 28.8 µM in the assay on TK-10 renal. Besides, the TGI in the assay with A498 renal is 45.1 µM; in the assay on NCI-H460 lung, greater than 68.9 µM; with UACC-62 melanoma it was 34.4 µM; with HS 578T breast, 76.1 µM; in the assay with NCI-H522 lung, 10.9 µM; in the assay on SK-MEL-2 melanoma, 53.6 µM. Further, the TGI in the assay with SF-268 CNS came to 44.3 µM.
In the case of `CO[C@H]1O[C@@H]2CO[C@@H](c3ccccc3)O[C@H]2C[C@]12CCC/C=C\CO2`, the TGI with HOP-62 NSCLC was 44.4 µM; in the assay on OVCAR-4 ovarian, greater than 75 µM; in the assay on COLO 205 colon, 26.6 µM; with U251 CNS, 23.5 µM; in the assay with HCT-116 colon it was 23.5 µM; in the assay with TK-10 renal it was 59.2 µM. Moreover, the TGI with A498 renal was 37.2 µM; with NCI-H460 lung, greater than 75 µM; in the assay on UACC-62 melanoma it was greater than 75 µM; with HS 578T breast, 40 µM; with NCI-H522 lung, 23.6 µM; with SK-MEL-2 melanoma, 41.4 µM. This compound also gave a TGI in the assay on SF-268 CNS of 32.1 µM.
Turning to `CC(=O)OC[C@@]12C[C@H]3C(=O)C(C)(C)C[C@H]3[C@]1(C)[C@@H](OC(C)=O)[C@]1(O)[C@H]([C@@H](OC(=O)c3ccccc3)[C@@H](C)[C@H]1OC(C)=O)[C@H]2OC(C)=O`, the TGI with HOP-62 NSCLC, in the assay with OVCAR-4 ovarian, with COLO 205 colon, with U251 CNS, in the assay on HCT-116 colon and in the assay with TK-10 renal was greater than 20 µM each time. The TGI in the assay on A498 renal, in the assay on NCI-H460 lung, in the assay on UACC-62 melanoma, with HS 578T breast, with NCI-H522 lung and with SK-MEL-2 melanoma was greater than 20 µM each time. The compound also came in with a TGI with SF-268 CNS greater than 20 µM.
Take `CC/C(Cl)=N\OC(=O)Nc1ccc(C#N)cc1`: the TGI in the assay with HOP-62 NSCLC worked out at 39.2 µM; in the assay on OVCAR-4 ovarian, 23.6 µM; in the assay on COLO 205 colon, 3.3 µM; with U251 CNS, 30.8 µM; with HCT-116 colon, 28.1 µM; with TK-10 renal, 30.1 µM. Further, the TGI with A498 renal came to 30.3 µM; in the assay with NCI-H460 lung, 36.2 µM; with UACC-62 melanoma, 28.4 µM; in the assay on HS 578T breast it was 57.8 µM; with NCI-H522 lung, 2.82 µM; in the assay on SK-MEL-2 melanoma it was 30 µM. The compound also had a TGI in the assay on SF-268 CNS of 33 µM.
For `Clc1nc2c(-c3cccs3)ncnc2n1Cc1ccccc1`, the TGI in the assay with HOP-62 NSCLC is greater than 100 µM; in the assay with OVCAR-4 ovarian, greater than 100 µM; in the assay with COLO 205 colon, greater than 100 µM; in the assay on U251 CNS, greater than 100 µM; with HCT-116 colon, greater than 100 µM; with TK-10 renal, 61.5 µM. For the same compound, the TGI with A498 renal is 55.6 µM; in the assay with NCI-H460 lung, greater than 83.2 µM; with UACC-62 melanoma, greater than 100 µM; in the assay on HS 578T breast, 87.8 µM; in the assay on NCI-H522 lung, greater than 100 µM; in the assay with SK-MEL-2 melanoma, greater than 100 µM. Further, the TGI with SF-268 CNS was greater than 100 µM.
As to `COC(=O)C1=C(O)C(C(=O)OC)[C@]2(O)[C@H](C(=O)OC)[C@H]1C[C@@H](c1ccc(OC)cc1)[C@H]2C(=O)OC` (stereo partly drawn), the TGI is 85.1 µM in the assay on HOP-62 NSCLC; 78.2 µM with OVCAR-4 ovarian; greater than 100 µM in the assay with COLO 205 colon; 65.6 µM with U251 CNS; 38.5 µM in the assay with HCT-116 colon; greater than 100 µM in the assay with TK-10 renal. The TGI in the assay on A498 renal is 34.9 µM; with NCI-H460 lung it was 50 µM; in the assay on UACC-62 melanoma it was 25.8 µM; in the assay with HS 578T breast it was greater than 100 µM; with NCI-H522 lung, 17.7 µM; in the assay with SK-MEL-2 melanoma it was 56.3 µM. The same compound returned a TGI in the assay on SF-268 CNS greater than 100 µM.
